# BindingDB's records for patent US11472769 (Eccogene (Shanghai) Co., Ltd., 2022)
# Target: T1, Amine oxidase [copper-containing] 3 (Homo sapiens, UniProt Q16853)
# T1 construct: gene AOC3
# Assay: SSAO Activity Assay
# Experimental: Amine oxidase activity of recombinant hSSAO, hMAO-A, and hMAO-B isoforms are measured using the MAO-Glo assay kit (Promega, V1402). Ten nL test compounds (with DMSO as vehicle, 0.1% v/v for hSSAO, hMAO-A and hMAO-B) were added into assay plates by Echo, and pre-incubated with 5 μL of enzyme for 30 mins at room temperature before the addition of 5 μL of luminogenic substrate. The substrate concentration is 40 μM for human recombinant SSAO, 40 μM for human recombinant MAO-A, and 4 μM for human recombinant MAO-B. The hSSAO and hMAO-A assays were conducted in the MAO-A reaction buffer in the kit, and the MAO-B assay was conducted in the MAO-B reaction buffer. Oxidation of the substrate was conducted for 1 hr, before the addition of detecting reagent according the manufacture's protocol. The IC50 value of the tested compounds was calculated by fitting the dose response curve using a 4-parameter non-linear regression routine.
# T1 sequence (Q16853 whole entry, looked up): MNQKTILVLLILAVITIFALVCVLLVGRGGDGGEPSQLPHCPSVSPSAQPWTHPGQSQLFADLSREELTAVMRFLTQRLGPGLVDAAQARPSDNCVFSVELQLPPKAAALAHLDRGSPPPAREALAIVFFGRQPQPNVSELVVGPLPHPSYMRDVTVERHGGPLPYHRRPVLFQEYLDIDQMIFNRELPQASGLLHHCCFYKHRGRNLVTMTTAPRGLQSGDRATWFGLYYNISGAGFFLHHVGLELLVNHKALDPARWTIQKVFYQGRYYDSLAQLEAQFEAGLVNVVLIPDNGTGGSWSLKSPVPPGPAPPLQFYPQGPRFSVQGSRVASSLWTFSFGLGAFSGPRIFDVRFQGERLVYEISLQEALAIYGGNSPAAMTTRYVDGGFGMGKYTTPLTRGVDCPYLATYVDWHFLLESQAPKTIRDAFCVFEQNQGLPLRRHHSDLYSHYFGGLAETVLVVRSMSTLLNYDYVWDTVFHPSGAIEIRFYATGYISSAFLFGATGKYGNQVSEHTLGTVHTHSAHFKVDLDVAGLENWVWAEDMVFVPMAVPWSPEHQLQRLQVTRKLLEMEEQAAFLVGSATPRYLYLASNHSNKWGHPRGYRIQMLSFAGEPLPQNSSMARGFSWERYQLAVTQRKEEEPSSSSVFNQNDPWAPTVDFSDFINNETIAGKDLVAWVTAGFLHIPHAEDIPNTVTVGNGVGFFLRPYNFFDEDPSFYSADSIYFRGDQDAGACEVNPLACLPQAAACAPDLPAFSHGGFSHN
row,IC50,Structure (SMILES)
1,in the range around 60 nM,"C[C@@H](CN1CCC2(CCCC2)C1=O)CS(=O)(=O)c1ccc(OC/C(=C/F)CN)cc1 [US11472769, Compound 110]"
2,< 20 nM,"CC1(CS(=O)(=O)c2ccc(OC/C(=C/F)CN)cc2F)CCOCC1 [US11472769, Compound 7]"
3,< 20 nM,"NC/C(=C\F)COc1ccc(S(=O)(=O)COCC2CCOCC2)cc1 [US11472769, Compound 30]"
4,< 20 nM,"NC/C(=C\F)COc1ccc(S(=O)(=O)CC2CCOCC2)cc1 [US11472769, Compound 1]"
5,in the range around 60 nM,"C[C@@H](CN1CCCCC1=O)CS(=O)(=O)c1ccc(OC/C(=C/F)CN)cc1 [US11472769, Compound 105]"
6,< 20 nM,"CO[C@H]1CC[C@@H](CS(=O)(=O)c2ccc(OC/C(=C/F)CN)cc2)CC1 [US11472769, Compound 20]"
7,in the range around 60 nM,"NC/C(=C\F)COc1ccc(S(=O)(=O)CC23CCC(C(=O)O)(CC2)CC3)cc1 [US11472769, Compound 146]"
8,< 20 nM,"NC/C(=C\F)COc1ccc(S(=O)(=O)C[C@H]2CC[C@H](NC(=O)C3CC3)CC2)cc1 [US11472769, Compound 88]"
9,< 20 nM,"NC/C(=C\F)COc1ccc(S(=O)(=O)C[C@H]2CCCO2)cc1 [US11472769, Compound 24]"
10,> 500 nM,"C[C@H](CN1CCCC1=O)CS(=O)(=O)c1ccc(OC/C(=C/F)CN)cc1 [US11472769, Compound 93]"
11,< 20 nM,"NC/C(=C\F)COc1ccc(S(=O)(=O)C[C@H]2CC[C@@H](O)CC2)cc1 [US11472769, Compound 15]"
12,< 20 nM,"N#CC12CCC(CS(=O)(=O)c3ccc(OC/C(=C/F)CN)cc3)(CC1)CC2 [US11472769, Compound 87]"
13,< 20 nM,"NC/C(=C\F)COc1ccc(S(=O)(=O)CC23CCC(N4CCCS4(=O)=O)(CC2)CC3)cc1 [US11472769, Compound 82]"
14,< 20 nM,"C[C@@H](CN1CCOCC1)CS(=O)(=O)c1ccc(OC/C(=C/F)CN)cc1 [US11472769, Compound 113]"
15,< 20 nM,"NC/C(=C\F)COc1ccc(S(=O)(=O)CC23CCC(C4(O)CC4)(CC2)CC3)cc1 [US11472769, Compound 18]"
16,in the range around 60 nM,"NC/C(=C\F)COc1ccc(S(=O)(=O)C[C@H]2CC[C@H](O)CC2)cc1 [US11472769, Compound 14]"
17,< 20 nM,"CC(C)n1nc(CS(=O)(=O)c2ccc(OC/C(=C/F)CN)cc2)ccc1=O [US11472769, Compound 102]"
18,< 20 nM,"NC/C(=C\F)COc1ccc(S(=O)(=O)CC23CCC(C(=O)NC4CCC4)(CC2)CC3)cc1 [US11472769, Compound 64]"
19,< 20 nM,"CO[C@H]1CC[C@H](CS(=O)(=O)c2ccc(OC/C(=C/F)CN)cc2)CC1 [US11472769, Compound 19]"

row,IC50,Structure (SMILES)
1,in the range around 60 nM,"C[C@@H](CN1CCCC1=O)CS(=O)(=O)c1ccc(OC/C(=C/F)CN)cc1 [US11472769, Compound 94]"
2,in the range around 60 nM,"NC/C(=C\F)COc1ccc(S(=O)(=O)CC2CCCN(C(=O)C3CCCC3)C2)cc1 (configuration not stated) [US11472769, Compound 100]"
3,< 20 nM,"CC(C)C(=O)N(C)CC(C)(C)CS(=O)(=O)c1ccc(OC/C(=C/F)CN)cc1 [US11472769, Compound 96]"
4,in the range around 60 nM,"C[C@H](CN1CCC2(CCCC2)C1=O)CS(=O)(=O)c1ccc(OC/C(=C/F)CN)cc1 [US11472769, Compound 109]"
5,in the range around 60 nM,"C[C@H](CN1CCCCC1=O)CS(=O)(=O)c1ccc(OC/C(=C/F)CN)cc1 [US11472769, Compound 104]"
6,< 20 nM,"NC/C(=C\F)COc1ccc(S(=O)(=O)CC23CCC(NC(=O)C4CC4)(CC2)CC3)cc1 [US11472769, Compound 76]"
7,in the range around 60 nM,"NC/C(=C\F)COc1ccc(S(=O)(=O)Cc2ccc(C(=O)N3CCCC3)cc2)cc1 [US11472769, Compound 46]"
8,in the range around 60 nM,"NC/C(=C\F)COc1ccc(S(=O)(=O)C[C@@H]2CCOC2)cc1 [US11472769, Compound 21]"
9,in the range around 60 nM,"NC/C(=C\F)COc1ccc(S(=O)(=O)C[C@@H]2CCCO2)cc1 [US11472769, Compound 23]"
10,< 20 nM,"COCS(=O)(=O)c1ccc(OC/C(=C/F)CN)cc1 [US11472769, Compound 28]"
11,< 20 nM,"NC/C(=C\F)COc1ccc(S(=O)(=O)CC2CCN(C(=O)c3ccc(F)cc3)CC2)cc1 [US11472769, Compound 39]"
12,< 20 nM,"CC1(CS(=O)(=O)c2ccc(OC/C(=C/F)CN)cc2)CCOCC1 [US11472769, Compound 5]"
13,< 20 nM,"CC1CCN(C23CCC(CS(=O)(=O)c4ccc(OC/C(=C/F)CN)cc4)(CC2)CC3)C1=O (configuration not stated) [US11472769, Compound 83]"
14,< 20 nM,"NC/C(=C\F)COc1ccc(S(=O)(=O)CC23CCC(NC(=O)CC(F)(F)F)(CC2)CC3)cc1 [US11472769, Compound 79]"
15,in the range around 60 nM,"NC/C(=C\F)COc1ccc(S(=O)(=O)C[C@H]2CCOC2)cc1 [US11472769, Compound 22]"
16,< 20 nM,"NC/C(=C/F)COc1ccc(S(=O)(=O)CC23CCC(NC(=O)C4CC4)(CC2)CC3)cc1 [US11472769, Compound 139]"
17,< 20 nM,"NC/C(=C\F)COc1ccc(S(=O)(=O)CC2CCOCC2)cc1F [US11472769, Compound 9]"
18,in the range around 60 nM,"C[C@H](CN1CCOCC1)CS(=O)(=O)c1ccc(OC/C(=C/F)CN)cc1 [US11472769, Compound 112]"
